Article PMC10222203 (Pharmaceutics, 2023)
“And” between values parts separate entries of the source, which are not always exact repeats. Identical values can stand only once. Like-named read-outs stand apart in the source and are kept apart here.

How the values were obtained:
[1] = test system: brain-like endothelial cells (BLECs); experiment: in vitro
Procedure: (§1) The in vitro BBB model, consisting of CD34^+ endothelial cells (ECs) derived from hematopoietic stem cells in co-culture with bovine brain pericytes, was established as described by Cecchelli et al.. Written and informed consent was obtained for the collection of human umbilical cord blood, in compliance with French legislation. […] All experiments were carried out in line with the authorized protocol.
(§2) These isolated CD34+ cells were cultured in EGM-2, supplemented with 20% (v:v) FBS and 50 ng/mL vascular endothelial growth factor on 1% (w:v) gelatine-coated 24-well plates (2 × 10^5 cells/well). After 15–20 days, ECs are seen in the culture dish. For each experiment, the cells were expanded in 1% (w:v) gelatine-coated T75 flasks (BD Biosciences, Le Pont-de-Claix, France) in EGM-2. Bovine brain pericytes were isolated and characterized as described by Vandenhaute et al.. Sub-clones were cultured in Dulbecco’s Modified Eagle’s Medium supplemented with 20% (v:v) FBS, 2 mM L-glutamine, 50 µg/mL gentamycin, and 1 ng/mL basic fibroblast growth factor. At confluency, 5 × 10^4 cells were seeded in ECM-5 with 5% (v:v) FBS, 50 µg/mL gentamycin, and 0.5% endothelial cell growth factor in gelatine-coated 12-well plates (Costar, Corning Inc., New York, NY, USA). CD34^+-derived ECs were seeded at 8 × 10^4 cells per Matrigel-coated (BD Biosciences) insert (3401, Corning Inc., NY, USA) and put in co-culture with the bovine brain pericytes, with the pericytes at the bottom of the well, for 6 days to achieve brain-like endothelial cell (BLEC) characteristics (Figure 4b).
(§3) At the beginning of the permeability experiments, inserts with BLEC monolayers were transferred to new abluminal (receiver) compartments previously filled with 1.5 mL of RH buffer, and 500 µL of the compounds dissolved in RH buffer, with the addition of the paracellular marker sodium fluorescein (NaFlu), were added to the luminal (donor) compartment. After 3 h of incubation at 37 °C, with a shaking velocity of 60 rpm, aliquots were taken from the donor and receiver compartment. The BLEC monolayers were washed twice with cold RH buffer and lysed with RLT Lysis buffer. The samples were kept at −20 °C pending analysis in low-binding tubes.
(§4) An increase in the permeability to NaFlu in the presence of the peptide can indicate an increase in paracellular leakage and consequent loss of barrier integrity. To evaluate the ability of test compounds to cross Matrigel-coated filters without cells and to control for the adsorption to plastics and/or Matrigel, the NaFlu and peptide’s permeability over inserts without cells were also assessed. Mass balance (M.B%) was calculated from the amount of compound recovered in both compartments at the end of the experiment divided by the total amount added to the donor compartment at the start of the experiment.
(§5) Samples from both compartments as well as the lysed endothelial cells were analysed for fluorescence using a Synergy H1 (Biotek) set to quantify NaFlu (wavelengths Excitation 490 nm and Emission 525 nm) and with UPLC-MS/MS to assess the permeability and cellular uptake of the peptides. All experiments were performed in triplicate (n = 3 independent experiments per concentration and cCPPs).
(§6) Papp is the apparent permeability, J is the rate of appearance of the compound in the receiver compartment (amount/sec), and C0 is the concentration in the donor compartment at the start of the experiment (amount/mL).

in vitro = experiment: in vitro
Procedure: as §1, §2, §3, §4, §5, §6

[2] = test system: astrocytes differentiated from human neural stem cells; settings: 500 nM, 5 h, 37 °C
Procedure: (§7) Human neural stem cells (hNSCs) derived from human embryonic stem cells (hESCs) were differentiated to neurons or astrocytes. […] Cells were allowed to differentiate into desired lineage for three weeks before the addition of peptides. The peptides were individually added to 2 mL Neurobasal medium to a final concentration of 500 nM and incubated at 37 °C for 5 h. The medium was removed, and the cells were subsequently lysed using 300 µL of Pierce™ lysis buffer (ThermoFisher Scientific Cat. No. 87787) per well. Samples were kept at −20 °C pending analysis. The uptake of peptides was determined using the total cellular-to-unbound medium concentrations ratio, Kp,u,cell (mL/g total protein), according to Equation (11). (11) Kp,u,cell=Ccell/Cu,medium=Acell/Vcell/Cu,medium where Acell (nanomoles per g total protein) is the total amount of peptide in the cell lysate normalized by the total protein content and estimated volume of the cells. Total protein concentration (mg/mL) in the cell lysate was determined using a NanoDrop 2000C (ThermoFisher, Waltham, MA, USA) by measuring the absorbance at 280 nm. Vcell was estimated using the value of 6.5 µL/mg protein by analogy of HEK293 cells. […] The parameter Kp,u,cell (mL per g of total protein at 5 h) is a partition coefficient between the buffer and the cell culture, where the fraction in the buffer has no binding, but the measured concentration in the cells is a composite of both uptake into the cells and binding to both the cell surface and intra-cellular components. This parameter is thereby similar to Vu,brain as it also gives a description of both binding and uptake processes.
(§8) For estimation of the extent of transport across the cellular membrane, the unbound intracellular-to-extracellular ratio, Kp,uu,cell was calculated as described below:(12) Kp,uu,cell=Kp,u,cell×fu,cell

[3] = test system: neurons differentiated from human neural stem cells; settings: for Total neuronal cell-to-unbound medium concentration ratio, Kp,u,cell,N: neurons, 500 nM, 5 h, 37 °C
Procedure: as §7, §8

[4] = rat, plasma, Fraction unbound in plasma, fu,plasma, undiluted rat plasma, 1 µM, equilibrium dialysis 6 h 37 °C
Procedure: Peptide binding to plasma proteins, brain tissue homogenate, and lung tissue homogenate as well as to neuronal and astrocyte cell culture homogenates was investigated using equilibrium dialysis [47]. Undiluted plasma and brain from three peptide-naïve rats were used in the experiment. The brain homogenate was prepared by homogenizing 1 part brain with 4 parts of phosphate-buffered saline (PBS, pH 7.4). […] Semi-permeable membranes with a molecular weight cut-off of 12–14 kDa were used and placed in an HTD96b apparatus (HTDialysis, Gales Ferry, CT, USA). The undiluted plasma and respective homogenates were spiked with individual peptide to a concentration of 1 µM and were dialyzed against PBS (pH 7.4). Five technical replicates were prepared per biological replicate. The experiment was run for 6 h at 37 °C in a MaxQ4450 shaker (Thermo Fisher Scientific, NinoLab, Sweden) at 200 rpm. […] Aliquots (80 µL) were taken from the buffer and plasma/homogenate sides. To compensate for any differences in matrix during bioanalysis, the plasma and homogenate samples were mixed with equal volumes of blank buffer, and the buffer samples were mixed with an equal volume of relevant blank plasma/homogenate. Spiked plasma and respective homogenate samples were incubated to control for relative recovery and thermal stability of the peptides in respective matrices.
The unbound fraction in undiluted plasma was calculated using Equation (5), where Cbuffer is the unbound concentration of peptide in the buffer and Cplasma is the total concentration of peptide in plasma at 6 h. The binding of peptide in various homogenates was assessed in two steps. First, the fraction of unbound peptide in the diluted homogenate, fu,h,D, was calculated using Equation (6), where Chomogenate is the total concentration of peptide in respective homogenate at 6 h. Second, the correction for the dilution was implemented as described in Equation (7), where D is the dilution factor used in the preparation [47]. D was 5 for brain and lung homogenates and on average 35.3 for the cell culture studies, as determined based on the total protein content and the total volume of lysate. (5) fu,plasma=Cbuffer/Cplasma (6) fu,h,D=Cbuffer/Chomogenate (7) fu,tissue/cell=1/D/((1/fu,h,D )−1)+1/D

[5] = cell lysates vs brain homogenate, on average

SMILES	Percent of the initial amount in the lysed endothelial cells ([1]; BLECs exposed to 1000 nM peptide) [%]	Percent of the initial amount in the lysed endothelial cells ([1]; BLECs exposed to 2000 nM peptide) [%]	Percent of the initial amount in the lysed endothelial cells ([1]; BLECs exposed to 4000 nM peptide) [%]	Percent of the initial amount in the lysed endothelial cells ([1]; BLECs pre-exposed to 500 nM peptide) [%]	Papp (in vitro; Endothelial permeability, Pe (average across concentrations), BLEC monolayer, 3 h, 37 °C) [×10⁻⁶ cm/s]	Papp (in vitro; Papp, human in vitro BBB model, value used in simulation (Table S3)) [×10⁻⁶ cm/s]	Total astrocyte cell-to-unbound medium concentration ratio, Kp,u,cell,A [2]	Total astrocyte cell-to-unbound medium concentration ratio, Kp,u,cell,A ([2]; listed as kalata B1) [mL/g total protein]	Relative reduction of Kp,uu,cell in cell culture versus tissue slice experiments ([3]; neuron and astrocyte cultures vs brain slices)	Difference between Kp,u,cell (neurons, astrocytes) and Vu,brain (brain slice assay) ([3]; neurons and astrocytes vs brain slices)	Total neuronal cell-to-unbound medium concentration ratio, Kp,u,cell,N [3] [mL/g total protein]	fraction unbound [4]	Detection in the lysed endothelial cells ([1]; BLECs at end of transport experiment)	Papp A→B at 3 h (in vitro; human, pH 7.4) [×10⁻⁶ cm/s]	Papp at 3 h (in vitro; human, pH 7.4, Endothelial permeability, Pe (average across concentrations), BLEC monolayer, 3 h, 37 °C) [×10⁻⁶ cm/s]	Kp,u,cell fold lower than for kalata B1 ([3]; neurons and astrocytes)	fu,cell fold lower than fu,brain [5] [fold]
CC(C)C[C@@H]1NC(=O)CNC(=O)[C@H](CC(N)=O)NC(=O)[C@H](CCCNC(=N)N)NC(=O)[C@H]([C@@H](C)O)NC(=O)[C@@H]2CSSC[C@@H]3NC(=O)[C@H]([C@@H](C)O)NC(=O)CNC(=O)CNC(=O)[C@H](C(C)C)NC(=O)[C@@H]4CSSC[C@H](NC(=O)[C@H]([C@@H](C)O)NC(=O)[C@H](CSSC[C@H](NC(=O)[C@H](C(C)C)NC(=O)[C@@H]5CCCN5C1=O)C(=O)NCC(=O)N[C@@H](CCC(=O)O)C(=O)N[C@@H]([C@@H](C)O)C(=O)N4)NC(=O)CNC(=O)[C@@H]1CCCN1C(=O)[C@H]([C@@H](C)O)NC(=O)[C@H](CC(N)=O)NC3=O)C(=O)N[C@@H](CO)C(=O)N[C@@H](Cc1c[nH]c3ccccc13)C(=O)N1CCC[C@H]1C(=O)N[C@@H](C(C)C)C(=O)N2 [Kalata B1]	0.09	0.23	3.50	0.19	3.83	3.19	94.73 ± 3.08 mL/g total protein	94.7	ca. 3 fold	less than 2 fold	135.35 ± 21.2	0.3					
CC[C@H](C)[C@@H]1NC(=O)[C@@H]2CCCN2C(=O)[C@@H]2CCCN2C(=O)[C@H]([C@@H](C)CC)NC(=O)[C@H](CO)NC(=O)[C@H](CCCCN)NC(=O)[C@H]([C@@H](C)O)NC(=O)[C@@H]2CSSC[C@H](NC1=O)C(=O)N[C@@H](Cc1ccccc1)C(=O)N1CCC[C@H]1C(=O)N[C@@H](CC(=O)O)C(=O)NCC(=O)N[C@@H](CCCNC(=N)N)C(=O)N2 [SFTI-1, sunflower trypsin inhibitor-1]							19.0 mL/g total protein and 19.02 ± 4.34 mL/g total protein				31.11 ± 12.46		did not detect	2.62	3.8	up to 5 fold	3
